Test results: PubChem BioAssay AID2060603 (Molecular Pharmacology Branch, DTP, NCI, 2025)

Test system: 422866-222-R5-J1-PDC spheroid viability
Experiment: Anticancer human tumor 422866-222-R5-J1-PDC patient-derived pancreatic adenocarcinoma cell line growth inhibition [CLK]
Conditions: spheroids with HUVEC and MSC; for IC50: curve of first compound; for viability, T/C: stronger effect = lower value
Summary of the method: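 Patient-derived tumor cells grown as complex spheroids with HUVEC endothelial cells and mesenchymal stem cells, treated with drug combinations. Concentrations descend in half-log steps from near clinical Cmax, or from 10 microM if Cmax unknown.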

[1] = second compound 0.0316 µM, first compound 0.0316 µM
[2] = second compound 0.0316 µM, first compound 0.1 µM
[3] = second compound 0.0316 µM, first compound 0.316 µM
[4] = second compound 0.0316 µM, first compound 1 µM
[5] = second compound 0.1 µM, first compound 0.0316 µM
[6] = second compound 0.1 µM, first compound 0.1 µM
[7] = second compound 0.1 µM, first compound 0.316 µM
[8] = second compound 0.1 µM, first compound 1 µM
[9] = second compound 0.316 µM, first compound 0.0316 µM
[10] = second compound 0.316 µM, first compound 0.1 µM
[11] = second compound 0.316 µM, first compound 0.316 µM
[12] = second compound 0.316 µM, first compound 1 µM
[13] = second compound 1 µM, first compound 0.0316 µM
[14] = second compound 1 µM, first compound 0.1 µM
[15] = second compound 1 µM, first compound 0.316 µM
[16] = second compound 1 µM, first compound 1 µM
[17] = second compound 3.16 µM, first compound 0.0316 µM
[18] = second compound 3.16 µM, first compound 0.1 µM
[19] = second compound 3.16 µM, first compound 0.316 µM
[20] = second compound 3.16 µM, first compound 1 µM
[21] = second compound 10 µM, first compound 0.0316 µM
[22] = second compound 10 µM, first compound 0.1 µM
[23] = second compound 10 µM, first compound 0.316 µM
[24] = second compound 10 µM, first compound 1 µM
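Note: spheroids exposed to agents for seven days before readout.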

CC(Nc1ccc2c(c1)OCCn1cc(N3C(=O)OCC3C(F)F)nc1-2)C(N)=O (centres undefined) + CN1CCN(c2cc(C(=O)Nc3cc4cc(-c5cnn(C)c5)ccc4cn3)ccn2)CC1
IC50 (second compound 0.0316 µM): 265 nM
IC50 (second compound 0.1 µM): 389 nM
IC50 (second compound 0.316 µM): 307 nM
IC50 (second compound 1 µM): < 31.6 nM
IC50 (second compound 3.16 µM): < 31.6 nM
IC50 (second compound 10 µM): < 31.6 nM
viability, T/C [1]: 81.1%
viability, T/C [2]: 78.1%
viability, T/C [3]: 44.5%
viability, T/C [4]: 37.3%
viability, T/C (second compound 0.0316 µM, first compound 3.16 µM): 34%
viability, T/C (second compound 0.0316 µM, first compound 10 µM): 27%
viability, T/C [5]: 103%
viability, T/C [6]: 68.3%
viability, T/C [7]: 55.3%
viability, T/C [8]: 40.5%
viability, T/C (second compound 0.1 µM, first compound 3.16 µM): 33.4%
viability, T/C (second compound 0.1 µM, first compound 10 µM): 31.8%
viability, T/C [9]: 88.7%
viability, T/C [10]: 63.1%
viability, T/C [11]: 50%
viability, T/C [12]: 42.6%
viability, T/C (second compound 0.316 µM, first compound 3.16 µM): 36.5%
viability, T/C (second compound 0.316 µM, first compound 10 µM): 34.3%
viability, T/C [13]: 27.5%
viability, T/C [14]: 29.1%
viability, T/C [15]: 25.9%
viability, T/C [16]: 22.4%
viability, T/C (second compound 1 µM, first compound 3.16 µM): 21.3%
viability, T/C (second compound 1 µM, first compound 10 µM): 18.6%
viability, T/C [17]: 9.59%
viability, T/C [18]: 11%
viability, T/C [19]: 11.1%
viability, T/C [20]: 10.5%
viability, T/C (second compound 3.16 µM, first compound 3.16 µM): 13.8%
viability, T/C (second compound 3.16 µM, first compound 10 µM): 12.3%
viability, T/C [21]: 2.29%
viability, T/C [22]: 1.76%
viability, T/C [23]: 2.37%
viability, T/C [24]: 1.83%
viability, T/C (second compound 10 µM, first compound 3.16 µM): 3.35%
viability, T/C (second compound 10 µM, first compound 10 µM): 2.02%

CCN1CCN(Cc2ccc(Nc3ncc(F)c(-c4cc(F)c5nc(C)n(C(C)C)c5c4)n3)nc2)CC1 + CN1CCN(c2cc(C(=O)Nc3cc4cc(-c5cnn(C)c5)ccc4cn3)ccn2)CC1
IC50 (second compound 0.0316 µM): > 1000 nM
IC50 (second compound 0.1 µM): > 1000 nM
IC50 (second compound 0.316 µM): > 1000 nM
IC50 (second compound 1 µM): < 3.16 nM
IC50 (second compound 3.16 µM): < 3.16 nM
IC50 (second compound 10 µM): < 3.16 nM
viability, T/C (second compound 0.0316 µM, first compound 0.00316 µM): 110%
viability, T/C (second compound 0.0316 µM, first compound 0.01 µM): 101%
viability, T/C [1]: 89%
viability, T/C [2]: 88.8%
viability, T/C [3]: 90.8%
viability, T/C [4]: 110%
viability, T/C (second compound 0.1 µM, first compound 0.00316 µM): 122%
viability, T/C (second compound 0.1 µM, first compound 0.01 µM): 113%
viability, T/C [5]: 93.8%
viability, T/C [6]: 85.5%
viability, T/C [7]: 72.5%
viability, T/C [8]: 107%
viability, T/C (second compound 0.316 µM, first compound 0.00316 µM): 103%
viability, T/C (second compound 0.316 µM, first compound 0.01 µM): 84.9%
viability, T/C [9]: 89%
viability, T/C [10]: 72.3%
viability, T/C [11]: 69.4%
viability, T/C [12]: 84.5%
viability, T/C (second compound 1 µM, first compound 0.00316 µM): 34.6%
viability, T/C (second compound 1 µM, first compound 0.01 µM): 37.7%
viability, T/C [13]: 34.4%
viability, T/C [14]: 41.9%
viability, T/C [15]: 53.5%
viability, T/C [16]: 49.8%
viability, T/C (second compound 3.16 µM, first compound 0.00316 µM): 8.29%
viability, T/C (second compound 3.16 µM, first compound 0.01 µM): 8.47%
viability, T/C [17]: 8.82%
viability, T/C [18]: 7.58%
viability, T/C [19]: 9.92%
viability, T/C [20]: 13.5%
viability, T/C (second compound 10 µM, first compound 0.00316 µM): 1.95%
viability, T/C (second compound 10 µM, first compound 0.01 µM): 2.42%
viability, T/C [21]: 1.51%
viability, T/C [22]: 1.89%
viability, T/C [23]: 2.56%
viability, T/C [24]: 1.96%
